Source: patent publication US8927009B2 (AbbVie Inc., priority 2009, dated 2015)
Structures can show the parent of a compound that is named as a salt.

Columns and labels:
Type in all cases: physicochemical
[1] = Drug solubility in ternary excipient systems; parameters: key: ✓: vehicle miscible, or drug fully dissolved in vehicle; conditions: 10% salt, 20% free base
Source text: (§1) Solvents evaluated included Labrafil M 1944 CS™, Imwitor 742™, oleic acid, Capmul PG-8™, Capmul PG-12™, Lauroglycol 90™ (propylene glycol monolaurate, available from Gattefossé) and Phosal 53 MCT™. Surfactants evaluated included Tween 80™, Cremophor RH40™, Gelucire 44/14™ (polyoxyethylene glyceryl laurate, available from Gattefossé) and Labrasol™.

[2] = Drug solubility in ternary excipient systems; parameters: key: ✓: vehicle miscible, or drug fully dissolved in vehicle; x: vehicle immiscible or miscible but turbid, or residual solids present (due to undissolved drug or precipitation); conditions: 10% salt, 20% free base
Source text: as §1

[3] = Solubility in lipid solvents and solvent mixtures in ambient conditions; conditions: listed as bis-HCl salt
Description: Solubility of ABT-263 parent (free base, crystalline Form I) and ABT-263 bis-HCl salt was tested in a variety of lipid solvents and solvent mixtures in ambient conditions. Trademarked solvents in this study, unless identified hereinabove, are as follows (substantially equivalent products from other manufacturers can be substituted if available): • Miglyol 810™ of Sasol: caprylic/capric triglycerides; • Capmul MCM™ of Abitec: glyceryl caprylate/caprate; • Captex 300™ of Abitec: caprylic/capric triglycerides; • Labrafil M 2125 CS™ of Gattefossé: polyoxyethylene glyceryl linoleate; • Tween 20™ of Uniqema: polysorbate 20; • Labrasol™ of Gattefossé: polyoxyethylene glyceryl caprylate/caprate; • Cremophor RH40™: polyoxyethyene (40) hydrogenated castor oil. “PE-91” is Phosal 53 MCT™+ethanol, 9:1 by volume. “LOT-343” is Labrafil M 1944 CS™+oleic acid+Tween 80™, 30:40:30 by weight.
In some cases, indicated in Table 4 by an asterisk (*), solubility was initially high but precipitation occurred upon standing.

CC1(C)CCC(c2ccc(Cl)cc2)=C(CN2CCN(c3ccc(C(=O)NS(=O)(=O)c4ccc(N[C@H](CCN5CCOCC5)CSc5ccccc5)c(S(=O)(=O)C(F)(F)F)c4)cc3)CC2)C1 [ABT-263 bis-HCl]
ABT-263 solubility ([1]; Capmul PG-8/Labrafil M 1944 CS/Labrasol (C8LL) 40:40:20 % by weight): ✓ | ABT-263 solubility ([1]; Capmul PG-12/Labrafil M 1944 CS/Tween 80 (C12LT) 30:40:30 % by weight): ✓ | ABT-263 solubility ([1]; Capmul PG-12/Labrafil M 1944 CS/Tween 80 (C12LT) 35:40:25 % by weight): ✓ | ABT-263 solubility ([1]; Capmul PG-12/Labrafil M 1944 CS/Tween 80 (C12LT) 40:30:30 % by weight): ✓ | ABT-263 solubility ([1]; Capmul PG-12/Labrafil M 1944 CS/Tween 80 (C12LT) 45:30:25 % by weight): ✓ | ABT-263 solubility ([1]; Imwitor 742/Labrafil M 1944 CS/Cremophor RH40 (ILC) 40:40:20 % by weight, listed as salt): ✓ | ABT-263 solubility ([1]; Imwitor 742/Labrafil M 1944 CS/Cremophor RH40 (ILC) 50:30:20 % by weight, listed as salt): ✓ | ABT-263 solubility ([1]; Imwitor 742/Labrafil M 1944 CS/Cremophor RH40 (ILC) 50:40:10 % by weight, listed as salt): ✓ | ABT-263 solubility ([1]; Imwitor 742/Labrafil M 1944 CS/Cremophor RH40 (ILC) 60:30:10 % by weight, listed as salt): ✓ | ABT-263 solubility ([1]; Imwitor 742/Labrafil M 1944 CS/Labrasol (ILL) 40:40:20 % by weight, listed as salt): ✓ | ABT-263 solubility ([1]; Imwitor 742/Labrafil M 1944 CS/Labrasol (ILL) 50:30:20 % by weight, listed as salt): ✓ | ABT-263 solubility ([1]; Imwitor 742/Labrafil M 1944 CS/Labrasol (ILL) 50:40:10 % by weight, listed as salt): ✓ | ABT-263 solubility ([1]; Imwitor 742/Labrafil M 1944 CS/Labrasol (ILL) 60:30:10 % by weight, listed as salt): ✓ | ABT-263 solubility ([1]; Labrafil M 1944 CS/Imwitor 742/Tween 80 (LIT) 30:40:30 % by weight, listed as salt): ✓ | ABT-263 solubility ([1]; Labrafil M 1944 CS/Imwitor 742/Tween 80 (LIT) 30:45:25 % by weight, listed as salt): ✓ | ABT-263 solubility ([1]; Labrafil M 1944 CS/Imwitor 742/Tween 80 (LIT) 40:30:30 % by weight, listed as salt): ✓ | ABT-263 solubility ([1]; Labrafil M 1944 CS/Imwitor 742/Tween 80 (LIT) 40:35:25 % by weight, listed as salt): ✓ | ABT-263 solubility ([1]; Labrafil M 1944 CS/oleic acid/Cremophor RH40 (LOC) 30:60:10 % by weight): ✓ | ABT-263 solubility ([1]; Labrafil M 1944 CS/oleic acid/Cremophor RH40 (LOC) 40:50:10 % by weight): ✓ | ABT-263 solubility ([1]; Labrafil M 1944 CS/oleic acid/Tween 80 (LOT) 30:40:30 % by weight): ✓ | ABT-263 solubility ([1]; Labrafil M 1944 CS/oleic acid/Tween 80 (LOT) 30:45:25 % by weight): ✓ | ABT-263 solubility ([1]; Labrafil M 1944 CS/oleic acid/Tween 80 (LOT) 40:30:30 % by weight): ✓ | ABT-263 solubility ([1]; Labrafil M 1944 CS/oleic acid/Tween 80 (LOT) 40:35:25 % by weight): ✓ | ABT-263 solubility ([1]; Lauroglycol 90/Labrafil M 1944 CS/Cremophor RH40 (LLC) 45:30:25 % by weight): ✓ | ABT-263 solubility ([1]; Lauroglycol 90/Labrafil M 1944 CS/Labrasol (LLL) 40:40:20 % by weight): ✓ | ABT-263 solubility ([1]; Lauroglycol 90/Labrafil M 1944 CS/Labrasol (LLL) 50:30:20 % by weight): ✓ | ABT-263 solubility ([1]; Lauroglycol 90/Labrafil M 1944 CS/Labrasol (LLL) 50:40:10 % by weight, listed as salt): ✓ | ABT-263 solubility ([1]; Lauroglycol 90/Labrafil M 1944 CS/Labrasol (LLL) 60:30:10 % by weight, listed as salt): ✓ | ABT-263 solubility ([1]; oleic acid/Labrafil M 1944 CS/Labrasol (OLL) 40:40:20 % by weight): ✓ | ABT-263 solubility ([1]; oleic acid/Labrafil M 1944 CS/Labrasol (OLL) 50:30:20 % by weight): ✓ | ABT-263 solubility ([1]; oleic acid/Labrafil M 1944 CS/Labrasol (OLL) 50:40:10 % by weight): ✓ | ABT-263 solubility ([1]; oleic acid/Labrafil M 1944 CS/Labrasol (OLL) 60:30:10 % by weight): ✓ | ABT-263 solubility ([2]; Capmul PG-8/Labrafil M 1944 CS/Cremophor RH40 (C8LC) 40:40:20 % by weight): x | ABT-263 solubility ([2]; Capmul PG-8/Labrafil M 1944 CS/Cremophor RH40 (C8LC) 50:30:20 % by weight): x | ABT-263 solubility ([2]; Capmul PG-8/Labrafil M 1944 CS/Cremophor RH40 (C8LC) 50:40:10 % by weight): x | ABT-263 solubility ([2]; Capmul PG-8/Labrafil M 1944 CS/Cremophor RH40 (C8LC) 60:30:10 % by weight): x | ABT-263 solubility ([2]; Capmul PG-8/Labrafil M 1944 CS/Labrasol (C8LL) 50:30:20 % by weight): x | ABT-263 solubility ([2]; Capmul PG-8/Labrafil M 1944 CS/Labrasol (C8LL) 50:40:10 % by weight): x | ABT-263 solubility ([2]; Capmul PG-8/Labrafil M 1944 CS/Labrasol (C8LL) 60:30:10 % by weight): x | ABT-263 solubility ([2]; Capmul PG-8/Labrafil M 1944 CS/Tween 80 (C8LT) 30:40:30 % by weight): x | ABT-263 solubility ([2]; Capmul PG-8/Labrafil M 1944 CS/Tween 80 (C8LT) 35:40:25 % by weight): x | ABT-263 solubility ([2]; Capmul PG-8/Labrafil M 1944 CS/Tween 80 (C8LT) 40:30:30 % by weight): x | ABT-263 solubility ([2]; Capmul PG-8/Labrafil M 1944 CS/Tween 80 (C8LT) 45:30:25 % by weight): x | Solubility ([3]; in Capmul PG-8, ambient conditions): <43 mg/g | Solubility ([3]; in Capmul PG-12, ambient conditions): <39 mg/g | Solubility ([3]; in Captex 300, ambient conditions): <52 mg/g | Solubility ([3]; in Labrafil M 1944 CS, ambient conditions): <45 mg/g | Solubility ([3]; in Labrafil M 2125 CS, ambient conditions): <44 mg/g | Solubility ([3]; in PE-91 (Phosal 53 MCT + ethanol 9:1 by volume), ambient conditions): 89 mg/g | Solubility ([3]; in poloxamer 124, ambient conditions): <41 mg/g | Solubility ([3]; in sesame oil, ambient conditions): <80 mg/g
